From patent publication US10202413B2, “Neuroactive enantiomeric 15-, 16- and 17-substituted steroids as modulators for GABA type-A receptors” (priority 2013, dated 2019)
Like-named read-outs stand apart in the source and are kept apart here. Marks after values point to notes of the source that are not given here.

Tests used:
Tadpole = Tadpole loss of righting (LRR) and loss of swimming (LSR) reflexes; type: in vivo; settings: for EC50: ± SEM; for tadpoles that lost LRR / tadpoles that lost LSR: concentration of 3 μM, number of 10 tadpoles
Source text: Table 3 discloses the anesthetic effects of the compounds of the present disclosure. In particular, the anesthetic effect of the compounds of the present disclosure on Loss of Righting Reflex (LRR) and Loss of Swimming Reflex (LSR).
Methods used are known in the art (see, e.g., Jiang, et al., Neurosteroid analogues. 9. Conformationally constrained pregnanes: structure-activity studies of 13,24-cyclo-18,21-dinorcholane analogues of the GABA modulatory and anesthetic steroids (3α,5α)- and (3α,5β)-3-hydroxypregnan-20-one. J. Med. Chem. 2003, 46, 5334-5348). Error limits are calculated as standard error of the mean (N=10 or more animals at each of five or more different concentrations).

[1] = target: T1, rat α1β2γ2L type GABAA receptors expressed in Xenopus laevis oocytes (Rattus norvegicus, UniProt P18508+P62813+P63138, INS375LLRMFSFK); experiment: Oocyte electrophysiology: potentiation of chloride currents mediated by 2 μM GABA, and direct gating; type: cell-based; settings: ± SEM (N≥4); for ratio of currents measured in the presence/absence of added compound, 0.1 μM: 0.1 μM compound; for ratio of currents measured in the presence/absence of added compound, 0.1 μM / ratio of currents measured in the presence/absence of added compound, 1.0 μM / ratio of currents measured in the presence/absence of added compound, 10 μM: 2 μM GABA; for ratio of currents measured in the presence/absence of added compound, 1.0 μM: 1.0 μM compound; for ratio of currents measured in the presence/absence of added compound, 10 μM: 10 μM compound; for (gating) 10 μM: ratio of compound only current/GABA current: direct current gated by 10 μM compound in the absence of GABA
T1 construct: expressed in transfected cells; host or cells: Xenopus laevis oocytes
Description: The compounds of the present disclosure were evaluated for the ability to potentiate chloride currents mediated by 2 μM GABA at rat α1β2γ2L type GABAA receptors expressed in Xenopus laevis oocytes and the results are shown in Table 2.
The GABA concentration used for the control response was 2 μM. Each compound was evaluated on at least four different oocytes at the concentrations indicated, and the results reported are the ratio of currents measured in the presence/absence of added compound. Gating represents direct current gated by 10 μM compound in the absence of GABA, and this current is reported as the ratio of compound only current/[…] current. Error limits are calculated as standard error of the mean (N≥4). Receptor expression and whole-cell and single-channel recordings were carried out as described previously (see Jiang, et al., Neurosteroid analogues. 9. Conformationally constrained pregnanes: structure-activity studies of 13,24-cyclo-18,21-dinorcholane analogues of the GABA modulatory and anesthetic steroids (3α,5α)- and (3α,5β)-3-hydroxypregnan-20-one. J. Med. Chem. 2003, 46, 5334-5348).

[2] = target: picrotoxin binding site on GABAA receptors; experiment: [35S]-TBPS displacement (inhibition of [35S]-TBPS binding); settings: non-competitive displacement of [35S]-TBPS; ± standard error of the mean
Description: The IC50 values for the compounds of the examples as non-competitive displacers of [^35S]-TBPS from the picrotoxin binding site on GABAA receptors are reported in Table 1.
Results presented are from duplicate experiments performed in triplicate. Error limits are calculated as standard error of the mean. Methods used are known in the art (see, e.g., Jiang, et al., Neurosteroid analogues. 9. Conformationally constrained pregnanes: structure-activity studies of 13,24-cyclo-18,21-dinorcholane analogues of the GABA modulatory and anesthetic steroids (3α,5α)- and (3α,5β)-3-hydroxypregnan-20-one. J. Med. Chem. 2003, 46, 5334-5348).

[3] = loss of righting reflex, read-out: Tadpole LRR EC50
[4] = loss of swimming reflex, read-out: Tadpole LSR EC50

T1 sequence (P62813 28-455, stated change not applied): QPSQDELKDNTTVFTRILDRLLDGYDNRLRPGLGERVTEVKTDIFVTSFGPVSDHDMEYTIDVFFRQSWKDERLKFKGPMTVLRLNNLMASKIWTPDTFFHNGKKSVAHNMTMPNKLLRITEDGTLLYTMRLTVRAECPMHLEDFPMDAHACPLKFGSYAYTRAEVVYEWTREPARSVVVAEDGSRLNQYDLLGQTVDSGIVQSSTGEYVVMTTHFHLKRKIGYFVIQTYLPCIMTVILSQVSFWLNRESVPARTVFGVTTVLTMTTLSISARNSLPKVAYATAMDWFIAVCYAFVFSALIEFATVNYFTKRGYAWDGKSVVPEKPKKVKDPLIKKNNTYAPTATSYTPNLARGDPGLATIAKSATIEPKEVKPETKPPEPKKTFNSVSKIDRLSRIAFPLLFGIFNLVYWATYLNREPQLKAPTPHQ
T1 sequence (P63138 26-474, stated change not applied): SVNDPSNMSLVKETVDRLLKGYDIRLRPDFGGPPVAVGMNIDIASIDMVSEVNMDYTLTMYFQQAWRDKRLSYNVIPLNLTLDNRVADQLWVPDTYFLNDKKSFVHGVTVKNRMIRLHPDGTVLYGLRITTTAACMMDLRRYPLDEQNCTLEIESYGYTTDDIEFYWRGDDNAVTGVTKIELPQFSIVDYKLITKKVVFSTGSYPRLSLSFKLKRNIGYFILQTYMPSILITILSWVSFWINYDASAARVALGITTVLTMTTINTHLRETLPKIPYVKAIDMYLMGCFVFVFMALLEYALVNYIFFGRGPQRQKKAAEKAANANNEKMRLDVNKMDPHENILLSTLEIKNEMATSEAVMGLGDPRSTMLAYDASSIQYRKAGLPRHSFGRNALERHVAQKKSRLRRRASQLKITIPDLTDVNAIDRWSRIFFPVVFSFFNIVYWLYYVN
T1 sequence (P18508 with tags, fused parts or gaps INS375LLRMFSFK): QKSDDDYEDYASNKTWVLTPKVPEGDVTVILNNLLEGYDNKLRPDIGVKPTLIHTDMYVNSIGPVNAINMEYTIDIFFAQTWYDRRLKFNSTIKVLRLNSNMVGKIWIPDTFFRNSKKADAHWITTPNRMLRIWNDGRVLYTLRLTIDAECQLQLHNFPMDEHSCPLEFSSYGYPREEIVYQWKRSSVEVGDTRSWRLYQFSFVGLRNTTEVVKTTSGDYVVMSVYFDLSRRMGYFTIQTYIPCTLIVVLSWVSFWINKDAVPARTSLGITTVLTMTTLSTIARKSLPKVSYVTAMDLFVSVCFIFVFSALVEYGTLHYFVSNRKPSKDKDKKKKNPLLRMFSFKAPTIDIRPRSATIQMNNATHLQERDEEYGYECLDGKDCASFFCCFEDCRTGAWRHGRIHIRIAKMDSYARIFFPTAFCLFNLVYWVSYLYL

Compound | EC50 (Tadpole; [3]) [nM] | EC50 (Tadpole; [4]) [nM] | ratio of currents measured in the presence/absence of added compound, 0.1 μM [1] | ratio of currents measured in the presence/absence of added compound, 1.0 μM [1] | ratio of currents measured in the presence/absence of added compound, 10 μM [1] | (gating) 10 μM: ratio of compound only current/GABA current [1] | IC50 [2] [nM] | melting point [°C] | tadpoles that lost LRR (Tadpole) | tadpoles that lost LSR (Tadpole)
C[C@@]12CC[C@@H]3[C@H](CC[C@H]4C[C@@H](O)CC[C@]43C)[C@H]1CC(=O)C2 [KK-97, (3β,5α,8α,9β,10α,13α,14β)-3-Hydroxyandrostan-16-one] | 490 ± 110 | 1730 ± 30 | 1.75 ± 0.24 | 6.15 ± 0.41 | 30.62 ± 2.14 | 0.16 ± 0.04 | 112 ± 7 | 132 to 134 |  | 
C[C@@]12CC[C@H]3[C@@H]4CC[C@H](O)C[C@H]4CC[C@@H]3[C@H]1CCC2=O [KK-18, (3β,5β,8α,9β,10α,13α,14β)-3-Hydroxyestran-17-one] | 3200 ± 2030 | > 10000 | 1.07 ± 0.05 | 1.64 ± 0.11 | 9.34 ± 1.36 | 0.13 ± 0.12 | 627 ± 100 |  |  | 
CO[C@@H]1C[C@@H]2[C@H]3CC[C@@H]4C[C@@H](O)CC[C@@]4(C)[C@@H]3CC[C@@]2(C)C1 [KK-134, (3β,5β,8α,9β,10α,13α,14β,16α)-16-Methoxyandrostan-3-ol] |  |  | 1.16 ± 0.07 | 5.22 ± 1.09 | 8.27 ± 1.27 | 0.04 ± 0.05 | 92 ± 9 | 169 to 171 | 10/10^a | 10/10^a
C[C@@]12CC[C@@H]3[C@H](CC(=O)[C@@H]4C[C@@H](O)CC[C@@]34C)[C@H]1CC(=O)C2 [MQ-124, (3β,5β,8α,9β,10α,13α,14β)-3-Hydroxyandrostane-6,16-dione] | > 10000 | > 10000 | 0.68 ± 0.03 | 0.85 ± 0.03 | 1.57 ± 0.05 | −0.01 ± 0 | 8950 ± 1860 | 205 to 207 |  | 
O=C1C[C@@H]2CC[C@@H]3[C@H](CC[C@@H]4C[C@@H](O)CC[C@H]43)[C@H]2C1 |  |  |  |  |  |  |  | 168 to 169 |  | 
CC(=O)[C@@H]1C[C@@H]2[C@H]3CC[C@@H]4C[C@@H](O)CC[C@@]4(C)[C@@H]3CC[C@@]2(C)C1 [KK-135, (3β,5β,8α,9β,10α,13α,14β,16α)-16-Acetylandrostan-3-ol] |  |  | 1.17 ± 0.09 | 3.26 ± 0.31 | 6.21 ± 0.31 | −0.04 ± 0.06 | 184 ± 11 | 169 to 172 | 10/10^a | 10/10^a
C[C@]1(O)CC[C@]2(C)[C@H](CC[C@H]3[C@H]2CC[C@@]2(C)C(=O)CC[C@H]32)C1 [KK-23, (3β,5β,8α,9β,10α,13α,14β)-3-Hydroxy-3-methylandrostan-17-one] | 930 ± 530 | 2810 ± 10 | 1.11 ± 0.15 | 3.31 ± 0.43 | 19.74 ± 5.64 | 0.09 ± 0.02 | 185 ± 28 | 183 to 185 |  | 
C[C@@]12CC[C@H](O)C[C@@H]1CC[C@H]1[C@H]2CC[C@@]2(C)C=C(C#N)C[C@H]12 [KK-136, (3β,5α,8α,9β,10α,13α,14β)-3-Hydroxyandrost-16-ene-16-carbonitrile] | 480 ± 20 | 1730 ± 30 | 0.98 ± 0.02 | 1.98 ± 0.14 | 10.04 ± 1.26 | 0.29 ± 0.25 | 335 ± 27 | 195 to 197 |  | 
C[C@@]12CC[C@H]3[C@@H]4CC[C@H](O)C[C@@H]4CC[C@@H]3[C@H]1CC(=O)C2 [KK-102] | 1210 ± 420 | 5480 ± 120 | 1.20 ± 0.02 | 4.23 ± 0.24 | 13.91 ± 1.38 | 0.04 ± 0.0 | 146 ± 18 | 139 to 142 |  | 
C[C@@]12CC[C@@H]3[C@H](CC[C@@H]4C[C@@H](O)CC[C@]43C)[C@H]1CC(=CC#N)C2 [KK-138, 2-[(3β,5β,8α,9β,10α,13α,14β)-3-Hydroxyandrostan-16-ylidene]-acetonitrile] | 140 | 870 | 1.63 ± 0.23 | 5.87 ± 1.65 | 10.16 ± 3.18 | 0.14 ± 0.06 | 32 ± 3 | 162 to 172 |  | 
C[C@]1(O)CC[C@]2(C)[C@@H](CC[C@H]3[C@H]2CC[C@@]2(C)C(=O)CC[C@H]32)C1 [KK-26, (3β,5α,8α,9β,10α,13α,14β)-3-Hydroxy-3-methylandrostan-17-one] | 1880 | 5480 ± 200 | 1.38 ± 0.10 | 5.10 ± 0.64 | 23.74 ± 2.88 | 0.49 ± 0.18 | 290 ± 33 |  |  | 
C[C@@]12CC[C@H](O)C[C@H]1CC[C@@H]1[C@H]3CC(=O)C[C@@H]3CC[C@H]12 [KK-114] | 3640 ± 2170 | > 10000 | 0.93 ± 0.02 | 1.13 ± 0.02 | 3.56 ± 0.15 | 0.01 ± 0.02 | 1520 | 174 to 177 |  | 
